Laboratory results reported in patent US20110268794A1, “METHODS AND MATERIALS FOR DELIVERING BILE ACIDS” (priority 2009, published 2011).

What was measured:
Format in all cases: in vivo, human
healthy volunteers [1] = assay: Scintigraphic gastrointestinal and colonic transit, healthy volunteers (Example 1); settings: for AC t1/2 (ascending colon emptying) / CF 6 (colonic filling at 6 hours) / GC 4 (colonic geometric center at 4 h) / GC 6 (colonic geometric center at 6 h) / GC 8 (colonic geometric center at 8 h) / GC 48 (colonic geometric center at 48 h) / GC 24 (colonic geometric center at 24 h) / GE t1/2 (gastric emptying): N = 20, mean ± SEM; for GC 48 (colonic geometric center at 48 h): overall p < 0.0001; for GC 24 (colonic geometric center at 24 h): overall p = 0.01; for GE t1/2 (gastric emptying): methacrylate-coated capsule
Method: This was a double-blind, placebo-controlled, randomized study evaluating the effects of sodium chenodeoxycholate (CDC) or placebo orally administered once daily for four days in healthy volunteers.
Randomization was 1:1:1 for placebo, chenodeoxycholate 500 mg, and chenodeoxycholate 1000 mg. Sodium chenodeoxycholate was purchased from Calbiochem, EMD Chemicals Inc., and Mayo pharmacy prepared identical placebo and chenodeoxycholate capsules, all of which were coated with the pH sensitive polymer, methacrylate. The latter dissolves at the neutral pH found in the distal ileum and was used to ensure ileocolonic delivery of the chenodeoxycholate.
Three groups (n=20 each) were randomized to oral placebo, 500 mg or 1000 mg CDC daily (in pH-sensitive, methacrylate-coated capsules), each for a period of 4 days.
Gastrointestinal (GI) and colonic transit was conducted by a scintigraphic method (Burton et al., J. Nucl. Med., 38:1807-10 (1997); Cremonini et al., Aliment Pharmacol. Ther., 16:1781-90 (2002); and Camilleri and Zinsmeister, Gastroenterology, 103:36-42 (1992)) during the last 48 hours of drug ingestion (FIG. 1).
An adaptation of an established scintigraphic method was used to measure GI and colonic transit (Burton et al., J. Nucl. Med., 38:1807-10 (1997); Cremonini et al., Aliment Pharmacol. Ther., 16:1781-90 (2002); and Camilleri and Zinsmeister, Gastroenterology, 103:36-42 (1992)). ^111In was adsorbed on to activated charcoal particles and delivered to the colon by means of a methacrylate-coated, delayed-release oral capsule. The capsule was ingested following an overnight fast. After the capsule emptied from the stomach, a ^99mTc-sulfur colloid radiolabeled meal was ingested. It consisted of two scrambled eggs, one slice of whole wheat bread, and one glass of whole milk. This meal facilitates measurement of gastric and small bowel transit. Subjects ingested standardized meals for lunch and dinner at 4 and 8 hours after the radiolabeled meal, respectively. Abdominal scans were obtained every hour for the first 6 hours (the first 4 hours for the assessment of gastric emptying) and at 8, 24, and 48 hours after ingestion of the ^111In capsule. The performance characteristics of this test are summarized elsewhere (Cremonini et al., Aliment Pharmacol. Ther., 16:1781-90 (2002)).
The counts in the stomach and each of four colonic regions: ascending, transverse, descending, and combined sigmoid and rectum were quantitated with a variable region of interest program. Counts were corrected for isotope decay, tissue attenuation, and downscatter of ^111In counts in the ^99mTc window (Burton et al., J. Nucl. Med., 38:1807-10 (1997) and Cremonini et al., Aliment Pharmacol. Ther., 16:1781-90 (2002)).
Gastric emptying t1/2 is a measure of the time for 50% of the radiolabeled meal (identifiable by radiolabeled tracer) to empty from the stomach. Colonic filling at 6 hours, or the proportion of the radiolabeled meal to have reached the colon at 6 hours is an indirect measurement of small bowel transit time. Overall colonic transit was summarized as the colonic geometric center (GC) at specified times. The GC is the weighted average of counts in the different colonic regions [ascending (AC), transverse (TC), descending (DC), rectosigmoid (RS)] and stool, respectively 1 to 5. Thus, at any time, the proportion of counts in each colonic region is multiplied by its weighting factor as follows:
(% AC×1+% TC×2+% DC×3+% RS×4+% stool×5)/100=GC
Thus, a higher GC reflects a faster colonic transit. Ascending colon emptying was summarized by the t1/2 calculated by linear interpolation of values on the AC emptying curve.
The primary endpoints were the colonic GC at 24 hours (GC 24) and AC emptying t1/2.

healthy volunteers [2] = assay: Daily stool diaries (bowel function), healthy volunteers (Example 1); settings: for Ease of passage (scale 1-7) / Stool frequency per day / Stool consistency by Bristol Stool Form Scale: N = 20, mean ± SEM; for Stool frequency per day: overall p < 0.001; for Stool consistency by Bristol Stool Form Scale: scale 1 hard lumps to 7 watery
Method: This was a double-blind, placebo-controlled, randomized study evaluating the effects of sodium chenodeoxycholate (CDC) or placebo orally administered once daily for four days in healthy volunteers. Three groups (n=20 each) were randomized to oral placebo, 500 mg or 1000 mg CDC daily (in pH-sensitive, methacrylate-coated capsules), each for a period of 4 days. During at least 3 days of the baseline period and the 4 days of treatment period, each patient noted each bowel movement with the exact time and with the description of stool consistency according to the BSFS (ranging from 1=“hard lumps” to 7=“watery”), and the ease of passage (ranging from 1=“manual disimpaction” to 7=“incontinence”), and answered whether or not they felt they had completely emptied their bowels (1=“yes” and 0=“no”) (Bouras et al., Gastroenterology, 120:354-60 (2001)). The diaries contained values for stool consistency, stool frequency, ease of passage and sense of completely emptying their bowels.

female IBS-C patients [3] = assay: Bowel function by daily questionnaires, female IBS-C patients (Example 2)
Method: (§1) The following study was performed to evaluate the effects of ileocolonic delivery of sodium chenodeoxycholate (CDC) on gastrointestinal (GI) and colonic transit and bowel function in constipation-predominant irritable bowel syndrome (IBS-C). A double-blind, placebo-controlled study evaluated effects of once-daily CDC for 4 days in 36 female IBS-C patients (mean age 41.80±1.62 y). Patients were randomized to oral placebo, 500 mg or 1000 mg CDC delivered to the ileocolonic region in pH-sensitive, methacrylate-coated capsules. Fasting serum 7α-hydroxy-4-cholesten-3-one (7αC4) was measured to assess for baseline abnormalities in bile acid synthesis. […] Treatment effects were compared by ANCOVA with BMI as a covariate, and each CDC dose against placebo by Dunnett's test.

female IBS-C patients [4] = assay: Scintigraphic gastrointestinal and colonic transit, female IBS-C patients (Example 2)
Method: as §1

female IBS-C patients [5] = assay: Side effects, female IBS-C patients (Example 2)
Method: as §1

healthy volunteers [6] = assay: Adverse events, healthy volunteers (Example 1); settings: for Percent of participants dizzy, light-headed / Percent of participants with URI / Percent of participants with diarrhea / Percent of participants with gas / Percent of participants with headache / Percent of participants with loose stools / Percent of participants with lower abdo bloating / Percent of participants with lower abdo pain/cramps / Percent of participants with muscle aches / Percent of participants with nausea / Percent of participants with sensation of warmth / Percent of participants with sweating: n=20
Method: This was a double-blind, placebo-controlled, randomized study evaluating the effects of sodium chenodeoxycholate (CDC) or placebo orally administered once daily for four days in healthy volunteers. An independent statistician generated the randomization code. Clinical and laboratory study personnel were blinded throughout the study until data were locked and analyzed. Safety monitoring was conducted throughout the study. Three groups (n=20 each) were randomized to oral placebo, 500 mg or 1000 mg CDC daily (in pH-sensitive, methacrylate-coated capsules), each for a period of 4 days.

[7] = 500 mg or 1000 mg once daily 4 days vs placebo, healthy volunteers
[8] = CDC 500 mg once daily 4 days, N = 11, mean ± SEM
[9] = CDC 1000 mg once daily 4 days, N = 12, mean ± SEM
[10] = 500 mg or 1000 mg once daily 4 days vs placebo

## C[C@H](CCC(=O)O)[C@H]1CC[C@H]2[C@@H]3[C@H](O)C[C@@H]4C[C@H](O)CC[C@]4(C)[C@H]3CC[C@]12C [CDC, sodium chenodeoxycholate]
Healthy volunteers [1]; [7]
  Treatment effect on colonic filling: not detected
  Treatment effect on gastric emptying: not detected
Healthy volunteers [1]; CDC 500 mg once daily 4 days
  AC t1/2 (ascending colon emptying): 12.1 ± 2.1 h
  CF 6 (colonic filling at 6 hours): 49.6 ± 7.0%
  GC 4 (colonic geometric center at 4 h): 0.87 ± 0.18
  GC 6 (colonic geometric center at 6 h): 1.53 ± 0.28
  GC 8 (colonic geometric center at 8 h): 1.83 ± 0.27
  GC 48 (colonic geometric center at 48 h): 4.10 ± 0.21
  GC 24 (colonic geometric center at 24 h): 2.80 ± 0.27
Healthy volunteers [1]; CDC 500 mg oral once daily 4 days
  GE t1/2 (gastric emptying): 2.115 ± 0.0883 h
Healthy volunteers [1]; CDC 1000 mg once daily 4 days
  AC t1/2 (ascending colon emptying): 10.7 ± 1.9 h
  CF 6 (colonic filling at 6 hours): 46.0 ± 7.1%
  GC 4 (colonic geometric center at 4 h): 1.27 ± 0.33
  GC 6 (colonic geometric center at 6 h): 2.20 ± 0.43
  GC 8 (colonic geometric center at 8 h): 2.52 ± 0.39
  GC 48 (colonic geometric center at 48 h): 4.92 ± 0.05
  GC 24 (colonic geometric center at 24 h): 3.76 ± 0.30
Healthy volunteers [1]; CDC 1000 mg oral once daily 4 days
  GE t1/2 (gastric emptying): 2.383 ± 0.235 h
Healthy volunteers [2]; 500 mg or 1000 mg once daily 4 days vs placebo, healthy volunteers, p=0.02
  Overall treatment effect on sense of incomplete evacuation: significant overall treatment effects
Healthy volunteers [2]; CDC 500 mg once daily 4 days
  Ease of passage (scale 1-7): 4.1 ± 0.06
  Stool frequency per day: 1.50 ± 0.18 per day
  Stool consistency by Bristol Stool Form Scale: 4.29 ± 0.19
Healthy volunteers [2]; CDC 1000 mg once daily 4 days
  Ease of passage (scale 1-7): 4.3 ± 0.06
  Stool frequency per day: 2.01 ± 0.15 per day
  Stool consistency by Bristol Stool Form Scale: 4.80 ± 0.15
Female IBS-C patients [3]; [8]
  Stool consistency (Bristol Scale): 3.58 ± 0.33
  Stool frequency per day: 1.22 ± 0.19 per day
Female IBS-C patients [3]; [9]
  Stool consistency (Bristol Scale): 3.47 ± 0.23
  Stool frequency per day: 1.27 ± 0.13 per day
Female IBS-C patients [4]; [10]
  Effect on colonic filling at 6 hours: not affected
  Effect on gastric emptying t1/2: not affected
Female IBS-C patients [4]; [8]
  AC t1/2 (ascending colon emptying): 9.55 ± 2.90 h
  CF 6 (colonic filling at 6 hours): 52.64 ± 6.67%
  GC 24 (colonic geometric center at 24 hours): 3.12 ± 0.43
Female IBS-C patients [4]; [9]
  AC t1/2 (ascending colon emptying): 8.19 ± 1.78 h
  CF 6 (colonic filling at 6 hours): 54.75 ± 7.05%
  GC 24 (colonic geometric center at 24 hours): 3.49 ± 0.36
Female IBS-C patients [5]; 500 mg or 1000 mg once daily 4 days
  Safety issues: No safety issues were identified
Female IBS-C patients [5]; CDC 500 mg once daily 4 days
  Patients with diarrhea: 18%
  Patients with lower abdominal cramps/pain: 45%
Female IBS-C patients [5]; CDC 1000 mg once daily 4 days
  Patients with diarrhea: 17%
  Patients with lower abdominal cramps/pain: 42%
Healthy volunteers [6]; 500 mg or 1000 mg once daily 4 days, healthy volunteers
  Serious adverse events: no serious adverse events
Healthy volunteers [6]; CDC 500 mg once daily 4 days
  Percent of participants dizzy, light-headed: 10%
  Percent of participants with URI: 0%
  Percent of participants with diarrhea: 40%
  Percent of participants with gas: 5%
  Percent of participants with headache: 25%
  Percent of participants with loose stools: 15%
  Percent of participants with lower abdo bloating: 5%
  Percent of participants with lower abdo pain/cramps: 15%
  Percent of participants with muscle aches: 5%
  Percent of participants with nausea: 5%
  Percent of participants with sensation of warmth: 5%
  Percent of participants with sweating: 5%
Healthy volunteers [6]; CDC 1000 mg once daily 4 days
  Percent of participants dizzy, light-headed: 5%
  Percent of participants with URI: 10%
  Percent of participants with diarrhea: 75%
  Percent of participants with gas: 5%
  Percent of participants with headache: 25%
  Percent of participants with loose stools: 20%
  Percent of participants with lower abdo bloating: 0%
  Percent of participants with lower abdo pain/cramps: 75%
  Percent of participants with muscle aches: 0%
  Percent of participants with nausea: 20%
  Percent of participants with sensation of warmth: 5%
  Percent of participants with sweating: 5%
